Laboratory results: patent US9642869B2, “Boronic acid derivatives and therapeutic uses thereof” (Rempex Pharmaceuticals, Inc., priority 2013, dated 2017)
pKi: −log10 of the molar value.

Columns and labels:
[1] = tested on: CTX-M-14 KP1005; experiment: Aztreonam potentiation (MPC@4); assay type: cell-based; details: minimum BLI concentration inhibiting growth with 4 μg/mL aztreonam
[2] = tested on: SHV-5 ec308; experiment: Aztreonam potentiation (MPC@4); assay type: cell-based; details: minimum BLI concentration inhibiting growth with 4 μg/mL aztreonam
[3] = tested on: TEM-10 ec302; experiment: Aztreonam potentiation (MPC@4); assay type: cell-based; details: minimum BLI concentration inhibiting growth with 4 μg/mL aztreonam
[4] = tested on: CMY-6 EC1010; experiment: Aztreonam potentiation (MPC@4); assay type: cell-based; details: minimum BLI concentration inhibiting growth with 4 μg/mL aztreonam
[5] = tested on: CTX-M-15 KP1009; experiment: Aztreonam potentiation (MPC@4); assay type: cell-based; details: minimum BLI concentration inhibiting growth with 4 μg/mL aztreonam
[6] = tested on: CTX-M-15 KP1009; assay type: cell-based
[7] = tested on: ECL1002; assay type: cell-based; details: for TIG MPC4 ECL1002: minimum BLI concentration inhibiting growth with tigemonam at 4 μg/mL
[8] = tested on: CMY-6 EC1010; assay type: cell-based; details: for TIG MPC4 CMY-6 EC1010: minimum BLI concentration inhibiting growth with tigemonam at 4 μg/mL
[9] = tested on: KPC-2 KP1004; experiment: Aztreonam potentiation (MPC@4); assay type: cell-based; details: minimum BLI concentration inhibiting growth with 4 μg/mL aztreonam
[10] = tested on: CTX-M-14 KP1005; assay type: cell-based
[11] = tested on: ECL1002; experiment: Aztreonam potentiation (MPC@4); assay type: cell-based; details: minimum BLI concentration inhibiting growth with 4 μg/mL aztreonam
[12] = tested on: OXA-48 KP1086; experiment: Biapenem potentiation (MPC@1); assay type: cell-based; details: minimum BLI concentration inhibiting growth with 1 μg/mL biapenem
Experimental: (§1) Biapenem was present in the test medium at 1 μg/mL. […] Table 3 summarizes the BLI potency of biapenem potentiation (MPC@1) for two strains overexpressing class A (KPC) and class D (OXA-48) carbapenemases. Biapenem MIC for each strain is also shown.

[13] = tested on: KP1004 KPC-2; experiment: Biapenem potentiation (MPC@1); assay type: cell-based; details: minimum BLI concentration inhibiting growth with 1 μg/mL biapenem
Experimental: as §1

[14] = tested on: SHV-5 ec308; assay type: cell-based; details: for TIG MPC4 SHV-5 ec308: minimum BLI concentration inhibiting growth with tigemonam at 4 μg/mL
[15] = biological target: KPC-2 (Klebsiella pneumoniae, UniProt Q9F663); experiment: Inhibition of nitrocefin cleavage by purified enzyme (Ki); assay type: biochemical; details: nitrocefin reporter substrate, 10 min preincubation; read-out: Ki (KPC-2, NCF)
Outline: (§2)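 Steps: enzyme plus inhibitor dilutions in reaction buffer; 10 min at room temperature; add nitrocefin; read absorbance at 490 nm each 10 sec for 10 min.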

[16] = biological target: OXA-48 (Klebsiella pneumoniae, UniProt Q6XEC0); experiment: as above; assay type: biochemical; details: nitrocefin reporter substrate, 10 min preincubation; read-out: Ki (OXA-48, NCF)
Outline: as §2

[17] = biological target: SHV-12 (Klebsiella pneumoniae, UniProt P0AD64, E235K/G234S/L31Q); experiment: as above; assay type: biochemical
Outline: as §2

[18] = biological target: P99 (Enterobacter cloacae, UniProt P05364); experiment: as above; assay type: biochemical; details: nitrocefin reporter substrate, 10 min preincubation; read-out: Ki (P99, NCF)
Outline: as §2

[19] = biological target: CTX-M-14 (Escherichia coli, UniProt Q9L5C7); experiment: as above; assay type: biochemical; details: nitrocefin reporter substrate, 10 min preincubation; read-out: Ki (CTX-M-14, NCF)
Outline: as §2

[20] = Intravenous pharmacokinetics; assay type: in vivo; details: rat, plasma; rats, IV infusion over 0.5 hours, dose 20 mg/kg; read-out: Free Cl (converted)
Experimental: Rats (n=3 per compound) were administered by a single infusion. IV doses were infused over 0.5 hours via an indwelling femoral vein cannula. Plasma (˜0.3 mL) samples were collected from each rat at designated time points up to 24 hours. Blood samples were centrifuged within 5 min of collection at 12000 g for 5 min to obtain plasma. The plasma samples were stored at −80° C. until analyzed. Data were analyzed using WinNonlin.

[21] = tested on: TEM-10 ec302; assay type: cell-based; details: strain TEM-10 ec302, tigemonam alone

Sequence of KPC-2 (Q9F663 25-293 limits assumed): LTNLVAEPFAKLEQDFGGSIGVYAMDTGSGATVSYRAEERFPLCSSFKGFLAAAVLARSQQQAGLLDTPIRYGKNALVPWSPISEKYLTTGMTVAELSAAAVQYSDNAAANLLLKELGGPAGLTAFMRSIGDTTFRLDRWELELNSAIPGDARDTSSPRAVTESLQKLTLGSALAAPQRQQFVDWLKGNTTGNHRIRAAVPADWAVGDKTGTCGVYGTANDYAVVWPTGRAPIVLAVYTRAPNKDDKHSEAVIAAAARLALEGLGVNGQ
Sequence of SHV-12 (P0AD64 22-286 L31Q/G234S/E235K): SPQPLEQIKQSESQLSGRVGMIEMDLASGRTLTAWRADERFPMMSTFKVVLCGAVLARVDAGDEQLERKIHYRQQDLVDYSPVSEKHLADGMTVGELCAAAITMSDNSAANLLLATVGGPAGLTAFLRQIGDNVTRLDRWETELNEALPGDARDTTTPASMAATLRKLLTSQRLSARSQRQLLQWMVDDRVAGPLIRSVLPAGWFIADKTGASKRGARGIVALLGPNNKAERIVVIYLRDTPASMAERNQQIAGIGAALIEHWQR
Sequence of P99 (P05364 21-381): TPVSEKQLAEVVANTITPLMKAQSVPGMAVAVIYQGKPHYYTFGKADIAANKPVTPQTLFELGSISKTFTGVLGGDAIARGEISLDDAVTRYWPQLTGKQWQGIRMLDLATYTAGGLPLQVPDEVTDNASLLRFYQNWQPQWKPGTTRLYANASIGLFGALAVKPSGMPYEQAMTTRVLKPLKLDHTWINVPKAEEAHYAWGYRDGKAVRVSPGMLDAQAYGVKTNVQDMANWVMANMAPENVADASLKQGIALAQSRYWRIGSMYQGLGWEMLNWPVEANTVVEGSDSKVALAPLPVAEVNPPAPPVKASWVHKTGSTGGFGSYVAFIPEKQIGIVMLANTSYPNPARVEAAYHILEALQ
Sequence of OXA-48 (Q6XEC0 23-265 limits assumed): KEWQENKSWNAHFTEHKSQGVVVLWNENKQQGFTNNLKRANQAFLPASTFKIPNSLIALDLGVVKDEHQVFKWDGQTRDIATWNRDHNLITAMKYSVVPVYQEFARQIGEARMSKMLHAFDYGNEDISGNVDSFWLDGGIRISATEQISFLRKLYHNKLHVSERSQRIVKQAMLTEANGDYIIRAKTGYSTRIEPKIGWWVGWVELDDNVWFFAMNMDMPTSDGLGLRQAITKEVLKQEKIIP
Sequence of CTX-M-14 (Q9L5C7 entry or part of it): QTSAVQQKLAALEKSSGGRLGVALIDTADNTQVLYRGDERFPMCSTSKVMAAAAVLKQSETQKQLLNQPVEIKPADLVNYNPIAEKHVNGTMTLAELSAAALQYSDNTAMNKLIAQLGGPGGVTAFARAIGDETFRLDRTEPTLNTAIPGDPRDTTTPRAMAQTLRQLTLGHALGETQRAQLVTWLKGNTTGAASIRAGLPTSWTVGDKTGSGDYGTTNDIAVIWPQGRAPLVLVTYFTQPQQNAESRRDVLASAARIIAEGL

SMILES | AZT MPC4 CTX-M-14 KP1005 [1] | AZT MPC4 SHV-5 ec308 [2] | AZT MPC4 TEM-10 ec302 [3] | AZT MPC4 CMY-6 EC1010 [4] | AZT MPC4 CTX-M-15 KP1009 [5] | TIG MPC4 CTX-M-15 KP1009 [6] | TIG MPC4 ECL1002 [7] | TIG MPC4 CMY-6 EC1010 [8] | AZT MPC4 KPC-2 KP1004 [9] | TIG MPC4 CTX-M-14 KP1005 [10] | AZT MPC4 ECL1002 [11] | BPM MPC1 OXA-48 KP1086 [12] | BPM MPC1 KP1004 KPC-2 [13] | TIG MPC4 SHV-5 ec308 [14] | pKi [15] | pKi [16] | pKi [17] | pKi [18] | pKi [19] | also measured
CNC(=O)CC(=O)N[C@H]1Cc2cccc(C(=O)O)c2OB1O [Compound 21, (R)-2-hydroxy-3-(3-(methylamino)-3-oxopropanamido)-3,4-dihydro-2H-benzo[e][1,2]oxaborinine-8-carboxylic acid] | Y (MIC of 1 μg/mL to 10 μg/mL) | X (MIC of less than 1 μg/mL) | Y (MIC of 1 μg/mL to 10 μg/mL) | X (MIC of less than 1 μg/mL) | X (MIC of less than 1 μg/mL) | Y (key: X: MIC of less than 1 μg/mL; Y: MIC of 1 μg/mL to 10 μg/mL; Z: MIC of greater than 10 μg/mL) | X (MIC of less than 1 μg/mL) | X (MIC of less than 1 μg/mL) | Y (MIC of 1 μg/mL to 10 μg/mL) | Y (key: X: MIC of less than 1 μg/mL; Y: MIC of 1 μg/mL to 10 μg/mL; Z: MIC of greater than 10 μg/mL) | X (MIC of less than 1 μg/mL) | Y (MIC of 1 μg/mL to 10 μg/mL) | X (MIC of less than 1 μg/mL) | Y (MIC of 1 μg/mL to 10 μg/mL) | < 8.00 | > 9.00 | > 9.00 | 8.00 to 9.00 | 8.00 to 9.00 | 
O=C(CSC1CNC1)N[C@H]1Cc2cccc(C(=O)O)c2OB1O [Compound 22, (R)-3-(2-(azetidin-3-ylthio)acetamido)-2-hydroxy-3,4-dihydro-2H-benzo[e][1,2]oxaborinine-8-carboxylic acid] | X (MIC of less than 1 μg/mL) | X (MIC of less than 1 μg/mL) | Y (MIC of 1 μg/mL to 10 μg/mL) | X (MIC of less than 1 μg/mL) | X (MIC of less than 1 μg/mL) | X (key: X: MIC of less than 1 μg/mL; Y: MIC of 1 μg/mL to 10 μg/mL; Z: MIC of greater than 10 μg/mL) | X (MIC of less than 1 μg/mL) | X (MIC of less than 1 μg/mL) | X (MIC of less than 1 μg/mL) | Y (key: X: MIC of less than 1 μg/mL; Y: MIC of 1 μg/mL to 10 μg/mL; Z: MIC of greater than 10 μg/mL) | X (MIC of less than 1 μg/mL) | Y (MIC of 1 μg/mL to 10 μg/mL) | X (MIC of less than 1 μg/mL) | Y (MIC of 1 μg/mL to 10 μg/mL) | < 8.00 | 8.00 to 9.00 | > 9.00 | 8.00 to 9.00 | 8.00 to 9.00 | clearance [20]: 9.5 mL/min/kg
CC1(C)[C@H](NC(=O)/C(=N\OCC(=O)O)c2csc(N)n2)C(=O)N1OS(=O)(=O)O [Tigemonam, reference compound] |  |  |  |  |  |  |  |  |  |  |  |  |  |  |  |  |  |  |  | Tigemonam MIC [21]: >64 µg/mL; Tigemonam MIC ([6]; strain CTX-M-15 KP1009, tigemonam alone): >64 µg/mL; Tigemonam MIC ([7]; strain ECL1002, tigemonam alone): 32 µg/mL; Tigemonam MIC ([8]; strain CMY-6 EC1010, tigemonam alone): 16 µg/mL; Tigemonam MIC ([10]; strain CTX-M-14 KP1005, tigemonam alone): >64 µg/mL; Tigemonam MIC ([14]; strain SHV-5 ec308, tigemonam alone): >64 µg/mL
